# Where a name gives a salt, the structure may show the parent alone.
# Target: T1, IRAK-4 enzyme (Homo sapiens, UniProt Q9NWZ3)
# T1 construct: purchased Millipore, USA
# T1 sequence (Q9NWZ3 1-460): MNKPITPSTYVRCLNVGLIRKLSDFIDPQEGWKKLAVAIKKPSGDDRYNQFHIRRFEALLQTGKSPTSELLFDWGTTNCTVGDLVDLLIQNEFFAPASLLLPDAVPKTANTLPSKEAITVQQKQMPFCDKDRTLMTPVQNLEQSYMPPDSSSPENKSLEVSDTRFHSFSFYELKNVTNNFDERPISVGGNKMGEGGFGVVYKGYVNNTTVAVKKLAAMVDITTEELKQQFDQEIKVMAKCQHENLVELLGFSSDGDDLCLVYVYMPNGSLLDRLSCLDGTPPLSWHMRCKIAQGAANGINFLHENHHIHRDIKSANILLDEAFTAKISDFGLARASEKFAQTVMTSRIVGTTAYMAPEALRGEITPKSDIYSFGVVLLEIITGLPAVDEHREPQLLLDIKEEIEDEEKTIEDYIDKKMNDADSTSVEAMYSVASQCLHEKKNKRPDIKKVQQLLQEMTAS
# Test: IRAK-4 Biochemical Assay (TR-FRET)
# Conditions: recombinant IRAK-4 kinase, 20 μM ATP; for inhibition at 1 µM: 1 μM compound; for inhibition at 0.1 µM: 0.1 μM compound
# Protocol: Compounds were tested for their potential to inhibit IRAK-4 enzyme in a TR-FRET assay using recombinant IRAK-4 kinase from Millipore, USA. The assay buffer was 50 mM Tris-HCl pH 7.5, 20 mM MgCl2, 1 mM EGTA, 2 mM DTT, 3 mM MnCl2 and 0.01% Tween 20.5 ng of IRAK-4 kinase was used for the assay. After pre-incubation of enzyme with test compound for 30 minutes at room temperature, a substrate mixture containing 100 nM Biotin Histone H3 (Millipore, USA) and 20 μM ATP (Sigma, USA) was added and the reaction was incubated for 30 min. Post incubation, the reaction was stopped by the addition of stop mix containing 40 mM EDTA, 1 nM of Europium-Anti-Phospho-Histone H3 (Ser10) antibody (Perkin Elmer, USA) and 20 nM SureLight Allophycocyanin-Streptavidin (Perkin Elmer, USA). The fluorescence emission at 615 nm and 665 nm were measured at an excitation of 340 nm and the percent inhibition was estimated from the ratio of the fluorescence intensities [(F665/F615)×10000].
# The compounds of the present invention were screened in the above mentioned assay and the percent inhibition data is summarized in the Table 1.
Structure (SMILES),inhibition at 1 µM [%],inhibition at 0.1 µM [%]
"Cn1cc2cc(NC(=O)c3coc(N4CC[C@H](O)C4)n3)c(C3CC3)nc2n1 [Example 22, (S)—N-(6-cyclopropyl-2-methyl-2H-pyrazolo[3,4-b]pyridin-5-yl)-2-(3-hydroxypyrrolidin-1-yl)oxazole-4-carboxamide]",65,
"Cn1cc2cc(NC(=O)c3coc(N4CC[C@H](O)C4)n3)c(N3CCCCC3)nc2n1 [Example 18, (S)-2-(3-hydroxypyrrolidin-1-yl)-N-(2-methyl-6-(piperidin-1-yl)-2H-pyrazolo[3,4-b]pyridin-5-yl)oxazole-4-carboxamide]",93,
"Cn1cc2cc(NC(=O)c3cccc(N4CC[C@H](O)C4)n3)c(N3CCCCC3)nc2n1 [Example 14, (S)-6-(3-hydroxypyrrolidin-1-yl)-N-(2-methyl-6-(piperidin-1-yl)-2H-pyrazolo[3,4-b]pyridin-5-yl)picolinamide]",94,57
"Cc1cnccc1-c1nc(C(=O)Nc2cc3cn(C)nc3nc2N2CC[C@H](O)C2)co1 [Example 20, (S)—N-(6-(3-hydroxypyrrolidin-1-yl)-2-methyl-2H-pyrazolo[3,4-b]pyridin-5-yl)-2-(3-methylpyridin-4-yl)oxazole-4-carboxamide]",72,
"Cc1cc(-c2nc(C(=O)Nc3cc4cnn(CCN5CCN(C)CC5)c4cc3N3CCC(O)CC3)co2)ccn1 [Example 6, N-(6-(4-hydroxypiperidin-1-yl)-1-(2-(4-methylpiperazin-1-yl)ethyl)-1H-indazol-5-yl)-2-(2-methylpyridin-4-yl)oxazole-4-carboxamide]",96,79
"Cc1cc(-c2nc(C(=O)Nc3cc4c(C)n(C)nc4nc3N3CCCCC3)co2)ccn1 [Example 26, N-(2,3-dimethyl-6-(piperidin-1-yl)-2H-pyrazolo[3,4-b]pyridin-5-yl)-2-(2-methylpyridin-4-yl)oxazole-4-carboxamide]",97,94
"Cc1cc(-c2nc(C(=O)Nc3cc4cnn(CCCN5CCOCC5)c4cc3N3CCC(O)CC3)co2)ccn1 [Example 5, N-(6-(4-hydroxypiperidin-1-yl)-1-(3-morpholinopropyl)-1H-indazol-5-yl)-2-(2-methylpyridin-4-yl)oxazole-4-carboxamide]",99,94
"C[C@H](O)Cn1cc(-c2cccc(C(=O)Nc3cc4cn(C)nc4nc3N3CCCCC3)n2)cn1 [Example 19, (S)-6-(1-(2-hydroxypropyl)-1H-pyrazol-4-yl)-N-(2-methyl-6-(piperidin-1-yl)-2H-pyrazolo[3,4-b]pyridin-5-yl)picolinamide]",96,
"Cc1cc(-c2nc(C(=O)Nc3cc4cnn(CCN5CCOCC5)c4cc3N3CCC(O)CC3)co2)ccn1 [Example 3, N-(6-(4-hydroxypiperidin-1-yl)-1-(2-morpholinoethyl)-1H-indazol-5-yl)-2-(2-methylpyridin-4-yl)oxazole-4-carboxamide]",100,97
"COCCn1ncc2cc(NC(=O)c3coc(-c4ccnc(N)c4)n3)c(N3CCC(O)CC3)cc21 [Example 7, 2-(2-aminopyridin-4-yl)-N-(6-(4-hydroxypiperidin-1-yl)-1-(2-methoxyethyl)-1H-indazol-5-yl)oxazole-4-carboxamide hydrochloride]",98,96
"Cn1cc2cc(NC(=O)c3coc(N4CC[C@H](N)C4)n3)c(N3CCCCC3)nc2n1 [Example 17, (S)-2-(3-aminopyrrolidin-1-yl)-N-(2-methyl-6-(piperidin-1-yl)-2H-pyrazolo[3,4-b]pyridin-5-yl)oxazole-4-carboxamide]",90,
Cn1cc2cc(NC(=O)c3coc(-c4ccnc(N)c4)n3)c(N3CCCCC3)nc2n1 [Example 24],99,99

# The next lines start with the values.
inhibition at 1 µM [%],inhibition at 0.1 µM [%],Structure (SMILES)
97,98,"Cn1cc2cc(NC(=O)c3cccc(-c4ccc(N)nc4)n3)c(N3CCCCC3)cc2n1 [Example 44, 6′-amino-N-(2-methyl-6-(piperidin-1-yl)-2H-indazol-5-yl)-[2,3′-bipyridine]-6-carboxamide]"
96,93,"Cn1cc2cc(NC(=O)c3cccc(-c4cccc(N)n4)n3)c(N3CCCCC3)cc2n1 [Example 46, 6′-amino-N-(2-methyl-6-(piperidin-1-yl)-2H-indazol-5-yl)-[2,2′-bipyridine]-6-carboxamide]"
13,0,"Cn1cc2cc(NC(=O)c3cc(-c4ccc(N)nc4)ccn3)c(N3CCCCC3)cc2n1 [Example 53, 6-amino-N-(2-methyl-6-(piperidin-1-yl)-2H-indazol-5-yl)-[3,4′-bipyridine]-2′-carboxamide hydrochloride]"
98,97,"Cc1c2cc(NC(=O)c3coc(-c4ccnc(N)c4)n3)c(N3CCCCC3)nc2nn1C [Example 27, 2-(2-aminopyridin-4-yl)-N-(2,3-dimethyl-6-(piperidin-1-yl)-2H-pyrazolo[3,4-b]pyridin-5-yl)oxazole-4-carboxamide]"
97,73,"Cc1ccc(C(=O)Nc2cc3cn(C)nc3cc2N2CCCCC2)nc1N1CCC(O)CC1 [Example 60, 6-(4-hydroxypiperidin-1-yl)-5-methyl-N-(2-methyl-6-(piperidin-1-yl)-2H-indazol-5-yl)picolinamide]"
99,97,"Cc1nn(C)c2nc(N3CCC(CO)CC3)c(NC(=O)c3coc(-c4ccnc(N)c4)n3)cc12 [Example 29, 2-(2-aminopyridin-4-yl)-N-(6-(4-(hydroxymethyl)piperidin-1-yl)-1,3-dimethyl-1H-pyrazolo[3,4-b]pyridin-5-yl)oxazole-4-carboxamide]"
57,0,"Cn1cc2cc(NC(=O)c3ccc(N4CCC(O)C4)cn3)c(N3CCCCC3)nc2n1 (stereo not shown) [Example 40, 5-(3-hydroxypyrrolidin-1-yl)-N-(2-methyl-6-(piperidin-1-yl)-2H-pyrazolo[3,4-b]pyridin-5-yl)picolinamide]"
97,96,"O=C(Nc1cc2cn(CCN3CCOCC3)nc2cc1N1CCCCC1)c1cccc(N2CCC(O)C2)n1 (stereo not shown) [Example 64, 6-(3-hydroxypyrrolidin-1-yl)-N-(2-(2-morpholinoethyl)-6-(piperidin-1-yl)-2H-indazol-5-yl)picolinamide]"
96,93,"Cn1cc2cc(NC(=O)c3cccc(-c4ccnc(N)c4)n3)c(C3CC3)cc2n1 [Example 52, 2′-amino-N-(6-cyclopropyl-2-methyl-2H-indazol-5-yl)-[2,4′-bipyridine]-6-carboxamide]"
92,57,"Cn1cc2cc(NC(=O)c3cccc(-c4cccc(N)n4)n3)c(C3CC3)cc2n1 [Example 51, 6′-amino-N-(6-cyclopropyl-2-methyl-2H-indazol-5-yl)[2,2′-bipyridine]-6-carboxamide hydrochloride]"
71,20,"CN1CCC(n2cc3cc(NC(=O)c4cccc(N5CCC(O)C5)n4)c(C4CC4)cc3n2)CC1 (stereo not shown) [Example 56, N-(6-cyclopropyl-2-(1-methylpiperidin-4-yl)-2H-indazol-5-yl)-6-(3-hydroxypyrrolidin-1-yl)picolinamide hydrochloride]"
9,7,"Cn1cc2cc(NC(=O)c3cc(N4CCC(O)C4)ccn3)c(N3CCCCC3)cc2n1 (stereo not shown) [Example 69, 4-(3-hydroxypyrrolidin-1-yl)-N-(2-methyl-6-(piperidin-1-yl)-2H-indazol-5-yl)picolinamide]"
86,29,"Cn1cc2cc(NC(=O)c3ccnc(N4CCC(O)C4)n3)c(C3CC3)cc2n1 (stereo not shown) [Example 72, N-(6-cyclopropyl-2-methyl-2H-indazol-5-yl)-2-(3-hydroxypyrrolidin-1-yl)pyrimidine-4-carboxamide]"
27,9,"COc1ccc(C(=O)Nc2cc3cn(C)nc3cc2N2CCCCC2)nc1-c1ccnc(N)c1 [Example 45, 2′-amino-3-methoxy-N-(2-methyl-6-(piperidin-1-yl)-2H-indazol-5-yl)-[2,4′-bipyridine]-6-carboxamide]"
51,10,"Cn1cc2cc(NC(=O)c3ccc(N4CCC(O)C4)cn3)c(N3CCCCC3)cc2n1 (stereo not shown) [Example 73, 5-(3-hydroxypyrrolidin-1-yl)-N-(2-methyl-6-(piperidin-1-yl)-2H-indazol-5-yl)picolinamide]"

# — patent US20180201609A1 (AURIGENE DISCOVERY TECHNOLOGIES LIMITED, priority 2015, published 2018)
